{"source": "patent US11571407B2", "about": "“Bicalutamide analogs or (S)-bicalutamide as exocytosis activating compounds for use in the treatment of a lysosomal storage disorder or glycogenosis” (BCN PEPTIDES, S.A., priority 2013, dated 2023)", "key": {"[1]": {"tested_on": "fibroblasts from patients affected by different lysosomal storage diseases", "assay": "Determination of lysosomal exocytosis (β-hexosaminidase activity in the culture medium)", "type": "cell-based, human", "conditions": "for Increase in exocytosis (%), Median: Table 4 median over the patients' fibroblasts; for Increase in exocytosis (%), Median / Increase in exocytosis (%): 72 h", "description": "(§1) Fibroblasts from thirteen patients affected by seven different lysosomal storage diseases (Fabry, Gaucher, Hurler, Niemann-Pick type A/B, Sanfilippo A, Sanfilippo B and Tay-Sachs) were cultured in DMEM (Dulbecco's modified Eagles medium) with 10% fetal bovine serum and in the presence of antibiotics (penicillin and streptomycin), at 37° C. with 5% CO2. All reagents were purchased from PAA Laboratories (Velizy-Villacoublay, France). The fibroblasts of the patients were selected on the basis of availability of fibroblasts and measurable residual activity. The use of human samples was approved by the Ethical Committee of Hospital Clinic, Barcelona\nFibroblasts cultured for 72 h in 24 well-plates in the presence or absence of bicalutamide, (S)-bicalutamide, (S)-bicalutamide analogs or (R)-bicalutamide at different concentrations in triplicate (10 nmol/L, 100 nmol/L, 1 μmol/L, 10 μmol/L, 50 μmol/L and 100 μmol/L), were rinsed with physiological saline. The cells were lysed by using 3 freeze-thaw cycles. Then protein concentration was determined by using the Lowry method. Protein lysates (10 μg) were seeded in 96-well plates and the enzymatic activity of the enzyme involved in each disease was determined in triplicate by means of fluorimetric artificial substrates: 4-methylumbelliferyl-α-N-sulphoglucosaminide for Sanfilippo A, 4-methylumbelliferyl-2-acetamido-2 deoxy-α-D-glucopyranoside for Sanfilippo B, 4-methylumbelliferyl-α-L-iduronide for Hurler, 4-methylumbelliferyl-N-acetyl-β-D-glucosaminide for Tay-sachs, 4-methylumbelliferyl-β-D-glucopyranoside for Gaucher, 4-methylumbelliferyl-α-Galactopiranosid for Fabry disease, and 6-hexadecanoylamino-4-methylumbelliferyl-P-colline for Niemann-Pick type AB. The activity of the enzyme β-hexosaminidase was assayed by using 4-methylumbelliferyl-2 acetamido-2 deoxy-β-D-glucopyranoside as artificial substrate [Annunziata et al., Study of influence of sex and age on human serum lysosomal enzymes by using 4-methylumbelliferyl substrates. Clin. Chim. Acta.\nLysosomal exocytosis was monitorized by measuring the enzymatic activity of the lysosomal enzyme β-hexosaminidase in the culture medium [Xu M, et al, δ-Tocopherol reduces lipid accumulation in Niemann-Pick type C1 and Wolman cholesterol storage disorders. […] The fibroblasts were previously treated with different concentrations of bicalutamide, (S)-bicalutamide or (R)-bicalutamide (10 nmol/L, 100 nmol/L, 1 μmol/L, 10 μmol/L, 50 μmol/L and 100 μmol/L) in triplicate in 24-well plates. At 0, 24, 48 and 72 hours, 30 μL of culture medium was aliquoted for the subsequent β-hexosaminidase activity assay.\nFibroblasts from two patients affected by Sanfilippo B and Hurler diseases were treated with different concentrations of bicalutamide (racemic mixture at increasing concentrations of 0.01, 0.1, 1, 10 and 100 μM). And the increase in lysosomal exocytosis was determined by analyzing the enzymatic activity of the lysosomal enzyme β-hexosaminidase in the culture medium.\nFibroblasts from thirteen patients affected by different lysosomal storage diseases (four Sanfilippo B disease patients with different genotypes, three Sanfilippo A disease patients with different genotypes, two Tay-Sachs disease patients with the same genotype, one Gaucher disease patient, one Niemann-pick type A/B disease patient, one Hurler disease patient, and one Fabry disease patient) were independently treated with different concentrations of (R)- and (S)-bicalutamide (50 and 100 μM) for 72 hours."}, "[2]": {"tested_on": "fibroblasts from patients affected by different lysosomal storage diseases", "assay": "Cell viability, MTT assay", "type": "cell-based, human", "design": "key to Decrease of Cell Viability (%): N.S.: non significant decrease", "conditions": "for Decrease of Cell Viability (%): 72 h", "description": "as §1\nFibroblasts of early passage (between 5 and 9 passages) were plated in 6- or 24-well plates depending on the test and were treated for 72 hours with increasing concentrations (10 nmol/L, 100 nmol/L, 1 μmol/L, 10 μmol/L, 50 μmol/L and 100 μmol/L) of bicalutamide (Sigma-Aldrich, St. Louis, USA) and (R)- and (S)-bicalutamide (Toronto Research Chemicals Inc., Toronto (Ontario), Canada). Cell viability was evaluated in each cell line for each concentration using the 3-[4,5-dimethylthiazol-2-yl]-2,5-diphenyl tetrazolium bromide (MTT) assay (Sigma-aldrich, St. Louis, USA) described by Sumantran V. N. Cellular chemosensitivity assays: an overview. Methods Mol. Biol. (2011), 731, 219-236.\nFibroblasts from thirteen patients with different lysosomal storage diseases (four patients affected by Sanfilippo B disease patients with different genotypes, three Sanfilippo A disease patients with different genotypes, two Tay-Sachs disease patients with the same genotype, one Gaucher disease patient, one Niemann-PickA/B disease patient, one Hurler disease patient and one Fabry disease patient) were independently treated with different concentrations of (R)- and (S)-bicalutamide (50 and 100 μM). Cell viability was evaluated for each treatment in each cell line using the MTT assay."}, "[3]": {"tested_on": "androgen receptors", "conditions": "cited from earlier work"}}, "note": "Marks after values point to notes of the source that are not given here."}
{"smiles": "C[C@@](O)(CS(=O)(=O)c1ccc(F)cc1)C(=O)Nc1ccc(C#N)c(C(F)(F)F)c1", "note": "[(S)-BICALUTAMIDE (1), (2S)-N-[4-cyano-3-(trifluoromethyl)phenyl]-3-[(4-fluorophenyl)sulfonyl]-2-hydroxy-2-methylpropanamide]", "values": [{"measurement": "Increase in exocytosis (%), Median", "setting": "[1]; 50 μM", "result": "114* %"}, {"measurement": "Increase in exocytosis (%), Median", "setting": "[1]; 100 μM", "result": "124* %"}, {"measurement": "Increase in exocytosis (%)", "setting": "[1]; Table 4 patient 1, Sanfilippo B fibroblasts, 50 μM", "result": "N.S."}, {"measurement": "Increase in exocytosis (%)", "setting": "[1]; Table 4 patient 1, Sanfilippo B fibroblasts, 100 μM", "result": "N.S."}, {"measurement": "Increase in exocytosis (%)", "setting": "[1]; Table 4 patient 2, Sanfilippo B fibroblasts, 50 μM", "result": "N.S."}, {"measurement": "Increase in exocytosis (%)", "setting": "[1]; Table 4 patient 2, Sanfilippo B fibroblasts, 100 μM", "result": "166* %"}, {"measurement": "Increase in exocytosis (%)", "setting": "[1]; Table 4 patient 3, Sanfilippo B fibroblasts, 50 μM", "result": "N.S."}, {"measurement": "Increase in exocytosis (%)", "setting": "[1]; Table 4 patient 3, Sanfilippo B fibroblasts, 100 μM", "result": "N.S."}, {"measurement": "Increase in exocytosis (%)", "setting": "[1]; Table 4 patient 4, Sanfilippo B fibroblasts, 50 μM", "result": "33* %"}, {"measurement": "Increase in exocytosis (%)", "setting": "[1]; Table 4 patient 4, Sanfilippo B fibroblasts, 100 μM", "result": "28* %"}, {"measurement": "Increase in exocytosis (%)", "setting": "[1]; Table 4 patient 5, Sanfilippo A fibroblasts, 50 μM", "result": "72* %"}, {"measurement": "Increase in exocytosis (%)", "setting": "[1]; Table 4 patient 5, Sanfilippo A fibroblasts, 100 μM", "result": "39* %"}, {"measurement": "Increase in exocytosis (%)", "setting": "[1]; Table 4 patient 6, Sanfilippo A fibroblasts, 50 μM", "result": "70* %"}, {"measurement": "Increase in exocytosis (%)", "setting": "[1]; Table 4 patient 6, Sanfilippo A fibroblasts, 100 μM", "result": "64* %"}, {"measurement": "Increase in exocytosis (%)", "setting": "[1]; Table 4 patient 7, Sanfilippo A fibroblasts, 50 μM", "result": "121* %"}, {"measurement": "Increase in exocytosis (%)", "setting": "[1]; Table 4 patient 7, Sanfilippo A fibroblasts, 100 μM", "result": "109* %"}, {"measurement": "Increase in exocytosis (%)", "setting": "[1]; Table 4 patient 8, Tay-Sachs fibroblasts, 50 μM", "result": "N.S."}, {"measurement": "Increase in exocytosis (%)", "setting": "[1]; Table 4 patient 8, Tay-Sachs fibroblasts, 100 μM", "result": "127* %"}, {"measurement": "Increase in exocytosis (%)", "setting": "[1]; Table 4 patient 9, Tay-Sachs fibroblasts, 50 μM", "result": "N.S."}, {"measurement": "Increase in exocytosis (%)", "setting": "[1]; Table 4 patient 9, Tay-Sachs fibroblasts, 100 μM", "result": "124* %"}, {"measurement": "Increase in exocytosis (%)", "setting": "[1]; Table 4 patient 10, Gaucher fibroblasts, 50 μM", "result": "N.S."}, {"measurement": "Increase in exocytosis (%)", "setting": "[1]; Table 4 patient 10, Gaucher fibroblasts, 100 μM", "result": "N.S."}, {"measurement": "Increase in exocytosis (%)", "setting": "[1]; Table 4 patient 11, Niemann-Pick AB fibroblasts, 50 μM", "result": "114* %"}, {"measurement": "Increase in exocytosis (%)", "setting": "[1]; Table 4 patient 11, Niemann-Pick AB fibroblasts, 100 μM", "result": "60* %"}, {"measurement": "Increase in exocytosis (%)", "setting": "[1]; Table 4 patient 12, Hurler fibroblasts, 50 μM", "result": "13629* %"}, {"measurement": "Increase in exocytosis (%)", "setting": "[1]; Table 4 patient 12, Hurler fibroblasts, 100 μM", "result": "5949* %"}, {"measurement": "Increase in exocytosis (%)", "setting": "[1]; Table 4 patient 13, Fabry fibroblasts, 50 μM", "result": "5402* %"}, {"measurement": "Increase in exocytosis (%)", "setting": "[1]; Table 4 patient 13, Fabry fibroblasts, 100 μM", "result": "3432* %"}, {"measurement": "cell cultures with significantly increased lysosomal exocytosis", "setting": "[1]; thirteen patient fibroblast cultures, 50 and 100 μM, 72 hours", "result": "ten of the thirteen"}, {"measurement": "Decrease of Cell Viability (%)", "setting": "[2]; Table 3 patient 1, Sanfilippo B fibroblasts, 50 μM", "result": 0, "unit": "%"}, {"measurement": "Decrease of Cell Viability (%)", "setting": "[2]; Table 3 patient 1, Sanfilippo B fibroblasts, 100 μM", "result": 0, "unit": "%"}, {"measurement": "Decrease of Cell Viability (%)", "setting": "[2]; Table 3 patient 2, Sanfilippo B fibroblasts, 50 μM", "result": 0, "unit": "%"}, {"measurement": "Decrease of Cell Viability (%)", "setting": "[2]; Table 3 patient 2, Sanfilippo B fibroblasts, 100 μM", "result": 0, "unit": "%"}, {"measurement": "Decrease of Cell Viability (%)", "setting": "[2]; Table 3 patient 3, Sanfilippo B fibroblasts, 50 μM", "result": 0, "unit": "%"}, {"measurement": "Decrease of Cell Viability (%)", "setting": "[2]; Table 3 patient 3, Sanfilippo B fibroblasts, 100 μM", "result": 0, "unit": "%"}, {"measurement": "Decrease of Cell Viability (%)", "setting": "[2]; Table 3 patient 4, Sanfilippo B fibroblasts, 50 μM", "result": 0, "unit": "%"}, {"measurement": "Decrease of Cell Viability (%)", "setting": "[2]; Table 3 patient 4, Sanfilippo B fibroblasts, 100 μM", "result": "N.S."}, {"measurement": "Decrease of Cell Viability (%)", "setting": "[2]; Table 3 patient 5, Sanfilippo A fibroblasts, 50 μM", "result": 0, "unit": "%"}, {"measurement": "Decrease of Cell Viability (%)", "setting": "[2]; Table 3 patient 5, Sanfilippo A fibroblasts, 100 μM", "result": 0, "unit": "%"}, {"measurement": "Decrease of Cell Viability (%)", "setting": "[2]; Table 3 patient 6, Sanfilippo A fibroblasts, 50 μM", "result": 0, "unit": "%"}, {"measurement": "Decrease of Cell Viability (%)", "setting": "[2]; Table 3 patient 6, Sanfilippo A fibroblasts, 100 μM", "result": 0, "unit": "%"}, {"measurement": "Decrease of Cell Viability (%)", "setting": "[2]; Table 3 patient 7, Sanfilippo A fibroblasts, 50 μM", "result": 0, "unit": "%"}, {"measurement": "Decrease of Cell Viability (%)", "setting": "[2]; Table 3 patient 7, Sanfilippo A fibroblasts, 100 μM", "result": 0, "unit": "%"}, {"measurement": "Decrease of Cell Viability (%)", "setting": "[2]; Table 3 patient 8, Tay-Sachs fibroblasts, 50 μM", "result": 0, "unit": "%"}, {"measurement": "Decrease of Cell Viability (%)", "setting": "[2]; Table 3 patient 8, Tay-Sachs fibroblasts, 100 μM", "result": 0, "unit": "%"}, {"measurement": "Decrease of Cell Viability (%)", "setting": "[2]; Table 3 patient 9, Tay-Sachs fibroblasts, 50 μM", "result": 0, "unit": "%"}, {"measurement": "Decrease of Cell Viability (%)", "setting": "[2]; Table 3 patient 9, Tay-Sachs fibroblasts, 100 μM", "result": "N.S."}, {"measurement": "Decrease of Cell Viability (%)", "setting": "[2]; Table 3 patient 10, Gaucher fibroblasts, 50 μM", "result": "N.S."}, {"measurement": "Decrease of Cell Viability (%)", "setting": "[2]; Table 3 patient 10, Gaucher fibroblasts, 100 μM", "result": "N.S."}, {"measurement": "Decrease of Cell Viability (%)", "setting": "[2]; Table 3 patient 11, Niemann-Pick AB fibroblasts, 50 μM", "result": "N.S."}, {"measurement": "Decrease of Cell Viability (%)", "setting": "[2]; Table 3 patient 11, Niemann-Pick AB fibroblasts, 100 μM", "result": "N.S."}, {"measurement": "Decrease of Cell Viability (%)", "setting": "[2]; Table 3 patient 12, Hurler fibroblasts, 50 μM", "result": 0, "unit": "%"}, {"measurement": "Decrease of Cell Viability (%)", "setting": "[2]; Table 3 patient 12, Hurler fibroblasts, 100 μM", "result": 0, "unit": "%"}, {"measurement": "Decrease of Cell Viability (%)", "setting": "[2]; Table 3 patient 13, Fabry fibroblasts, 50 μM", "result": 0, "unit": "%"}, {"measurement": "Decrease of Cell Viability (%)", "setting": "[2]; Table 3 patient 13, Fabry fibroblasts, 100 μM", "result": 0, "unit": "%"}, {"measurement": "decrease of cell viability (in words)", "setting": "[2]; thirteen fibroblast cultures, 50 and 100 μM", "result": "did not show any significant decrease of cell viability"}, {"measurement": "anti-androgenic activity", "setting": "[3]", "result": "inactive"}]}
